# Measured values from patent US20080032896A1, “Methods for identifying compounds that bind to a target” (priority 1995, published 2008).
# How the values were obtained:
# [1] = tested on: anti-FGF monoclonal antibody; experiment: FGF binding assay: inhibition of radiolabeled FGF binding to biotinylated anti-FGF antibody; design: species or system mouse
# Protocol: FIG. 1 is a graph depicting the ability of compounds PPI-432, PPI-652 and PPI-654 to inhibit the binding of radiolabeled FGF to an anti-FGF antibody.
# The activities of the libraries were tested using an FGF binding assay. […] Since Libraries I and II are highly diverse, the active non-peptide compounds should have a spectrum of potencies which cumulatively yield the average potency seen in the library.
# The eluted non-peptide compounds were brought to dryness under vacuum. Recovered non-peptide compounds were dissolved in 50 μl water and tested for their ability to block the interaction of bFGF with the target protein. (Assuming 100% recovery of non-peptide compounds and 100% binding to bivalent antibody, the amount of recovered non-peptide compounds was calculated to be 200 ng).
# Several of the non-peptide compounds selected from the combinatorial library were made synthetically and compared to the starting peptide (PPI-432) for their ability to bind to the target protein. The compounds were synthesized with an amino-terminal acetyl group and a carboxy-terminal amide. The potency of two non-peptide compounds (PPI-652 and PPI-654, shown in Table 2), containing modified amino acids at positions 5 and 7, were compared to the starting peptide PPI-432 in their ability to inhibit radiolabeled FGF binding to biotinylated anti-FGF antibody. […]
# [2] = tested on: monoclonal antibody to bFGF; experiment: Competitive binding: blocking of phage binding to the anti-bFGF antibody; design: species or system mouse; conditions: phage containing the sequence P-R-G-H-W-K-Q (SEQ ID NO: 9); competitive binding experiments
# Protocol: A monoclonal antibody raised against human basic FGF (bFGF) was used as a biopanning target using a 7-mer peptide library in a bacteriophage M13 vector. To prepare the biopanning plates, four wells of an Immulon4 microtiter plate (Dynatech) were coated with stepavidin (1 μg/well) in 100 mM NaHCO3, pH 9.5, for 2 hours at room temperature or overnight at 4° C. The strepavidin-coated wells were washed three times with phosphate-buffered saline (PBS). To each well containing strepavidin, biotinylated rat anti mouse antibody K light chain (PharMingen) was added, at 1 μg/well, in PBS for 30 minutes to 1 hour at room temperature. The wells were then washed again with PBS three times. Non-specific binding sites were blocked with 300 μl/well PBS, 1% dry milk for 1 hour at room temperature. The wells were then washed with PBS, 0.1% dry milk three times, loaded with 50 μl/well PBS, 0.1% dry milk and stored at 4° C. […]
# After the 2 hour room temperature incubation of the phage with the antibody, the PBS, 0.1% milk buffer was removed from the wells of the strepavidin/biotinylated α-mouse complex plates and the corresponding 100 μl of each tube containing the antibody/phage mixture was added to each of the four wells. […] The phage eluant was titered and the fractional yield determined. […]
Substance,blocking of the binding of bFGF to the antibody [1],blocking of phage binding to the antibody [2]
G-A-F-P-P-G-H-F-K-D-P-D-R-L (GAFPPGHFKDPDRL) [PPI-416],blocked,blocked
P-P-G-H-F-K-D (PPGHFKD) [PPI-432],blocked,
